{"source": "paper PMC11695783", "about": "(Frontiers in Pharmacology, 2024)", "test_system": "Mycoplasma pneumoniae strain M129 (ATCC 29342)", "assay": "Time-kill curves", "format": "cell-based", "parameters": "M. pneumoniae count in time-kill curve: unit not given here", "procedure": "Mycoplasma pneumoniae strain M129 (ATCC 29342) was obtained from American Type Culture Collection (Manassas, VA, United States) and cultured at 37°C in the presence of 5% CO2 in the modified SP-4 liquid medium (pH 7.4) containing 2.1% (w/v) CM1166 mycoplasma broth base medium (Oxoid, Hants, United Kingdom), 20% (v/v) fetal bovine serum (FBS, Bioexplorer, CO, United States), 0.4% yeast extract (Oxoid), 0.55% (w/v) CMRL 1066 w/L-glutamine culture media powder (MyBioSource, San Diego, CA, United States), 1% D-glucose (Macklin) and 0.004% phenol red (Macklin). […] The solid medium is based on the above formula with the addition of 1% agar, and the characteristic fried egg-like colonies were used for experiments following incubation for 7 d on plates.\nThe tubes were incubated at 37°C in 5% CO2 for 72 h, and 200 µL of the culture was removed every 12 h for 10-fold serial dilutions. The diluted cultures were plated on plates for further culture and counted after 7 d. The experiment was repeated three times.", "data": [{"molecule": "O=C(O)c1cn(C2CC2)c2cc(N3CCNCC3)c(F)cc2c1=O", "note": "[ciprofloxacin]", "values": [{"measurement": "M. pneumoniae count in time-kill curve", "setting": "1×MIC, time 0", "value": 7.07}, {"measurement": "M. pneumoniae count in time-kill curve", "setting": "1×MIC, time 12", "value": 6.346}, {"measurement": "M. pneumoniae count in time-kill curve", "setting": "1×MIC, time 24", "value": 6.462}, {"measurement": "M. pneumoniae count in time-kill curve", "setting": "1×MIC, time 36", "value": 6.137}, {"measurement": "M. pneumoniae count in time-kill curve", "setting": "1×MIC, time 48", "value": 6.414}, {"measurement": "M. pneumoniae count in time-kill curve", "setting": "1×MIC, time 60", "value": 6.605}, {"measurement": "M. pneumoniae count in time-kill curve", "setting": "1×MIC, time 72", "value": 5.901}, {"measurement": "M. pneumoniae count in time-kill curve", "setting": "2×MIC, time 0", "value": 7.07}, {"measurement": "M. pneumoniae count in time-kill curve", "setting": "2×MIC, time 12", "value": 6.0302}, {"measurement": "M. pneumoniae count in time-kill curve", "setting": "2×MIC, time 24", "value": 6.128}, {"measurement": "M. pneumoniae count in time-kill curve", "setting": "2×MIC, time 36", "value": 5.661}, {"measurement": "M. pneumoniae count in time-kill curve", "setting": "2×MIC, time 48", "value": 5.8}, {"measurement": "M. pneumoniae count in time-kill curve", "setting": "2×MIC, time 60", "value": 5.6841}, {"measurement": "M. pneumoniae count in time-kill curve", "setting": "2×MIC, time 72", "value": 4.597}, {"measurement": "M. pneumoniae count in time-kill curve", "setting": "4×MIC, time 0", "value": 7.07}, {"measurement": "M. pneumoniae count in time-kill curve", "setting": "4×MIC, time 12", "value": 5.551}, {"measurement": "M. pneumoniae count in time-kill curve", "setting": "4×MIC, time 24", "value": 5.334}, {"measurement": "M. pneumoniae count in time-kill curve", "setting": "4×MIC, time 36", "value": 5.292}, {"measurement": "M. pneumoniae count in time-kill curve", "setting": "4×MIC, time 48", "value": 5.137}, {"measurement": "M. pneumoniae count in time-kill curve", "setting": "4×MIC, time 60", "value": 5.179}, {"measurement": "M. pneumoniae count in time-kill curve", "setting": "4×MIC, time 72", "value": 4.3324}, {"measurement": "M. pneumoniae count in time-kill curve", "setting": "8×MIC, time 0", "value": 7.07}, {"measurement": "M. pneumoniae count in time-kill curve", "setting": "8×MIC, time 12", "value": 5.507}, {"measurement": "M. pneumoniae count in time-kill curve", "setting": "8×MIC, time 24", "value": 4.574}, {"measurement": "M. pneumoniae count in time-kill curve", "setting": "8×MIC, time 36", "value": 4.144}, {"measurement": "M. pneumoniae count in time-kill curve", "setting": "8×MIC, time 48", "value": 4.238}, {"measurement": "M. pneumoniae count in time-kill curve", "setting": "8×MIC, time 60", "value": 3.8395}, {"measurement": "M. pneumoniae count in time-kill curve", "setting": "8×MIC, time 72", "value": 3.628}, {"measurement": "M. pneumoniae count in time-kill curve", "setting": "16×MIC, time 0", "value": 7.07}, {"measurement": "M. pneumoniae count in time-kill curve", "setting": "16×MIC, time 12", "value": 5.235}, {"measurement": "M. pneumoniae count in time-kill curve", "setting": "16×MIC, time 24", "value": 4.279}, {"measurement": "M. pneumoniae count in time-kill curve", "setting": "16×MIC, time 36", "value": 3.946}, {"measurement": "M. pneumoniae count in time-kill curve", "setting": "16×MIC, time 48", "value": 3.861}, {"measurement": "M. pneumoniae count in time-kill curve", "setting": "16×MIC, time 60", "value": 3.824}, {"measurement": "M. pneumoniae count in time-kill curve", "setting": "16×MIC, time 72", "value": 3.354}, {"measurement": "M. pneumoniae count in time-kill curve", "setting": "32×MIC, time 0", "value": 7.07}, {"measurement": "M. pneumoniae count in time-kill curve", "setting": "32×MIC, time 12", "value": 4.952}, {"measurement": "M. pneumoniae count in time-kill curve", "setting": "32×MIC, time 24", "value": 4.119}, {"measurement": "M. pneumoniae count in time-kill curve", "setting": "32×MIC, time 36", "value": 3.694}, {"measurement": "M. pneumoniae count in time-kill curve", "setting": "32×MIC, time 48", "value": 3.873}, {"measurement": "M. pneumoniae count in time-kill curve", "setting": "32×MIC, time 60", "value": 3.5568}, {"measurement": "M. pneumoniae count in time-kill curve", "setting": "32×MIC, time 72", "value": 3.233}, {"measurement": "M. pneumoniae count in time-kill curve", "setting": "64×MIC, time 0", "value": 7.07}, {"measurement": "M. pneumoniae count in time-kill curve", "setting": "64×MIC, time 12", "value": 5.252}, {"measurement": "M. pneumoniae count in time-kill curve", "setting": "64×MIC, time 24", "value": 3.933}, {"measurement": "M. pneumoniae count in time-kill curve", "setting": "64×MIC, time 36", "value": 3.756}, {"measurement": "M. pneumoniae count in time-kill curve", "setting": "64×MIC, time 48", "value": 3.771}, {"measurement": "M. pneumoniae count in time-kill curve", "setting": "64×MIC, time 60", "value": 3.185}, {"measurement": "M. pneumoniae count in time-kill curve", "setting": "64×MIC, time 72", "value": 2.981}]}]}
